Assay results taken from a melting point compilation (Tetko et al.; mined from patent text by program, amines drawn as free bases though some values may be those of a salt).

melting point [°C] | SMILES
258 to 259 | O=C(O)c1ccc(COCc2csc3nc(C(=O)NCc4ccc(F)c(C(F)(F)F)c4)[nH]c(=O)c23)cc1
115 to 118 | Clc1ccc2nc(N3CCCCC3)nc(N3CCCCC3)c2c1
210 to 213 | Cc1ccc(CCCc2c(C)nc(N)nc2N)cc1
93 to 94 | CC(C)C[C@H](NC(=O)OCc1ccccn1)C(=O)N[C@@H](Cc1ccccc1)C(=O)CSCc1ccco1
251 to 252 | O=S1(=O)CCN2C=CC=C(c3ccc(Oc4ccccc4)cc3)C2=N1
178 to 180 | O=C(NCCNCC(O)COc1ccccc1)c1cc(O)ccc1O (stereo not given)
37 to 38 | CCCCCCCCSc1ccc(C#N)c(C#N)c1
116 to 122 | Nc1cccc(Cn2c(-c3ccc(NC(=O)c4cccc(Br)c4)cc3)ccc2-c2ccccc2Cl)n1
136 | COc1ccccc1Cn1c(-c2cc(OC)c(OC)c(OC)c2)nc2ccccc21
94 | O=CNc1nc(SCc2ccccc2)nn1-c1ccccc1
136 to 146 | CCC1(Br)Cc2c(Cl)ccc(OCC(=O)O)c2C1=O (stereo not given)
89 to 92 | CCCCn1c(=O)c2nn(S(=O)(=O)c3c(Cl)cc(Cl)cc3Cl)cc2n(CCCC)c1=O
155 to 158 | O=C1CCc2cc(C(=O)[C@H]3CC[C@H]3C(=O)O)ccc2N1 (relative stereo)
195 | CCS(=O)(=O)N(CC(=O)Nc1ccncc1)C1CC(C)(C)Oc2ccc(F)cc21 (stereo not given)
188 to 189 | O=C(Nc1ccccc1)Nc1ccnc(Br)c1
112 to 114 | CC(C)(C)CCn1c(=O)c(=NNc2ccccc2)c(=O)n(-c2ccccc2F)c2ccccc21
178 | COCCC(=O)N[C@H]1CC[C@H](CCN2CCN(c3nc(C)cc4c3CCO4)CC2)CC1
250 to 252 | Cc1c(-c2ccncc2)[nH]c(-c2ccncc2)c1C(C)O (stereo not given)
207 to 208 | Cc1oc(-c2ccccc2)nc1COc1cncc(COc2ccccc2CC(=O)O)c1
225 to 226 | CC(C)n1nc(-c2sc(NC(=O)c3ccc(F)cc3)nc2-c2ccccc2)ccc1=O
91 to 92 | O=C(OCCCc1ccccc1)c1ccc2c(c1)C(Cl)(Cl)c1cc(C(=O)OCCCc3ccccc3)ccc1-2
82 to 83 | Cn1nc(CO)nc1NCCCCOc1cccc(CN2CCCCC2)c1

melting point [°C] | SMILES
127 to 129 | CC1(O)OC(=O)C(c2c(F)cc(F)cc2F)=C1Cc1ccc(Cl)cc1 (stereo not given)
87 to 88 | OC(c1ccccc1)C1CCN(CCCc2ccccc2)CC1 (stereo not given)
145 to 146 | c1ccc(Cc2n[nH]c(NCCCCOc3cccc(CN4CCCCC4)c3)n2)cc1
115 to 116 | CCOc1nn(-c2ccc(C(F)(F)F)cn2)cc1CCCOc1nn(C)cc1CC(=O)O
227 to 228 | O=C(O)c1cc(NCc2ccc(Cl)cc2)ccc1O
94 to 96 | Cc1cn2cc(Cl)ccc2n1
136 to 138 | COC1=C(Br)C(=O)O/C1=C\c1ccccc1C(F)(F)F
85 to 87 | O=C(Nc1ccc2[nH]cnc2c1)C(=O)N1CCC(Cc2ccccc2)CC1
> 275 | Cc1ccccc1-n1c(-c2sc(Nc3ccc(Cl)cc3)nc2-c2ccccc2)nc2ccccc2c1=O
76 to 78 | COC(=O)C1CC(C#N)(c2cccs2)CCC1=O (stereo not given)
192 to 198 | CC1(C)OC(=O)Nc2ccc(-c3cccc(C#N)c3F)cc21
> 300 | Cc1nccn1-c1cc2[nH]c(=O)c(=O)n(O)c2cc1C(F)(F)F
230 to 232 | CC(C)(C)C(=O)c1c[nH]c2ncc(-c3cc(OCCS(C)(=O)=O)cc(N4CCCC4)c3)nc12
287 to 289 | CC(C)C1CCC2(C(=O)O)CCC3(C)C(CCC4C5(C)CCC(O)C(C)(C)C5CCC43C)C12 (stereo not given)
189 to 190 | COC(=O)C1=C(C)NC(C)=C(C(=O)OCCN2CCN(c3cccc(Cl)c3Cl)CC2)C1c1cccc([N+](=O)[O-])c1 (stereo not given)
172 to 174 | COc1ccc(C(=O)Nc2ccccc2)cc1NCc1cccc(C#N)c1
183 to 185 | CCOC(=O)c1nc(NC)sc1-c1nc2ccccn2c1C
152 to 153 | CS(=O)c1ccc(-n2cnc3ccc(-c4nnc(SCc5cccc(C#N)c5)o4)cc32)cc1 (stereo not given)
137 to 139 | COC(=O)Nc1ccc(Cl)c(F)c1I
122 to 124 | CCOC(=O)C1=C(C)NC(C(OC)OC)=C(C(=O)OC)C1c1ccccc1[N+](=O)[O-] (stereo not given)
118 to 120 | CCC(=CCn1oc(=O)[nH]c1=O)c1ccc2c(Cc3ccccc3)c(CC)oc2c1
143 to 144 | CCOC(=O)c1cn(-c2ccc(Cl)cc2)c(-c2ccc(Cl)cc2Cl)n1

melting point [°C] | SMILES
132 to 134 | O=c1n(CCCCN2CCN(c3cccc(Cl)c3)CC2)nc2n1-c1ccccc1OC2
86.5 to 87.5 | CC(C)n1nc(C(Cl)C(=O)c2ccccc2)ccc1=O (stereo not given)
198 to 199 | O=C(O)C1CCc2[nH]c3ccccc3c2C1 (stereo not given)
118 | COc1ccc2cc([C@H](C)C(=O)OCCCN3C(=O)OC[C@H]3C(C)(C)S)ccc2c1
223 to 225 | CC(=O)Nc1ncc2cc(-c3c(Cl)cccc3Cl)c(NC(C)=O)nc2n1
144 to 146 | CCCCNC(=O)NS(=O)(=O)c1sccc1C
164 to 166 | CNC(=O)c1[nH]c(C(C)(C)C)cc1NC(=O)Nc1ccc(C)cc1
160 to 162 | N#CNc1nccc(Oc2ccc(NC(=O)c3cc(F)cc(N4CCCCC4)c3)c3ccccc23)n1
218 to 221 | COc1cccc(C23CC(=O)NC(=O)C2=CCC(C)C3)c1 (stereo not given)
67 to 68 | COC(=O)CN1C(=O)[C@H](C(C)C)Oc2c(C(C)C)cccc21
214 to 216 | O=c1[nH]c2ccccc2n1CCN1CCc2c([nH]c3ccccc23)C1
212 to 215 | O=C(O)c1cccc(Oc2cccc(-c3nn(Cc4ccc(C(F)(F)P(=O)(O)O)c(Cl)c4)c(=Nc4ccc(Cl)c(Cl)c4)s3)c2)c1
161 to 162 | Cc1cc(Cl)c(OCCO)cc1Nc1nnc2n1[C@H](c1ccc(F)cc1)COC2
218 to 219 | CCCNC(=O)NS(=O)(=O)c1ccccc1Br
218 to 220 | Oc1ccc2cnccc2c1
142 to 143 | CCCCc1oc2ccccc2c1C(=O)NCc1ccc2cc(OCC#N)ccc2c1
277 to 278 | Cc1ccc(N)cc1NC(=O)c1ccc(O)cc1
160 | CC(C)(C)c1cc(C(=O)N2CCN(c3ccc([N+](=O)[O-])cc3)CC2)cc(C(C)(C)C)c1O
96 | CCCCc1nc(Sc2ccc(OC)cc2)c(C(=O)OCC)[nH]1
116 to 118 | N#Cc1cn(-c2c(Cl)cc(C(F)(F)F)cc2Cl)nc1C(F)(F)F
83 to 85 | CCN(CC)CCCCNc1ncc2c(n1)N(CC)C(=O)N(c1cc(OC)cc(OC)c1)C2

SMILES | melting point [°C]
NC(=S)c1ncn2c1[C@@H]1CCN1C(=O)c1ccccc1-2 | 227 to 230
CN1CN(C)C(=N[N+](=O)[O-])N(Cc2ccc(Cl)nc2)C1 | 116 to 117
CNCCCNCCCSP(=O)(O)O | 115 to 120
CCCN(CCC)Cc1nc(-c2ncn3c2CN(C)C(=O)c2c(Br)cccc2-3)no1 | 135 to 145
CSC1=NCC2CN=C(c3ccccc3F)c3cc(Cl)ccc3N12 (stereo not given) | 163 to 165
